Reference: patent US20160115540A1, “PRODRUGS AND DRUGS” (Biogen MA Inc., priority 2013, published 2016)
Counter-ions that a name gives are not always drawn.

Test system: blood and tissues
Experiment: Transcriptional profiling, acute (single) dosing, EAE mice: blood and tissues
Type: in vivo
Conditions: 100MMF-vs-Veh
Excerpt: EAE induction is generally performed by immunization with brain extracts, CNS proteins (such as myelin basic protein), or peptides from such protein emulsified in an adjuvant such as complete Freund's adjuvant, e.g., as described in Linker et al., Brain. 2011 March 134(Pt3): 678-92. […] FIG. 17 depicts exemplary immunophenotyping panels used to analyze various immune cell populations (e.g., T cells, T regulatory cells, NK cells, B cells, myeloid cells). […] The number of independent mice whose tissues were harvested for transcript profiling studies and whose data passed QC is shown in TABLE 15. Animals were exposed to CO2 and whole blood collected via cardiac puncture. Two 100 μl aliquots of whole blood were collected in 1.5 mL microcentrifuge tubes and snap frozen in liquid nitrogen. Peripheral (liver, spleen, kidney and jejunum) and CNS brain (cerebellum, hippocampus, striatum and cortex) tissues were harvested and snap frozen in liquid nitrogen, with special care taken to collect tissues of similar size and from the same location. All samples were stored at -80° C. until RNA extraction was conducted. For RNA preparation, frozen tissues were placed in 2 mL RNAse-free 96-well blocks with 1.5 mL QIAzol Lysis Reagent (QIAgen) and a 3.2 mm stainless steel bead (BioSpec Products, Bartlesville, Okla.). Tissues were disrupted for four cycles of 45 seconds in a Mini-Beadbeater (Biospec Products). RNA was extracted in chloroform and the aqueous phase was mixed with an equal volume of 70% ethanol. Extracted RNA was applied to RNeasy 96 plates and purified by the spin method according to the manufacturer's protocol (RNeasy 96 Universal Tissue Protocol, QIAgen, Hilden Germany). 50 ul of snap frozen mouse blood was re-suspended in lysis buffer with proteinase K and arrayed into deep-well plates for automated RNA extraction. RNA extractions were completed on […] (Beckman Coulter, Indianapolis, Ind.) using Agencourt RNAdvance Blood kit (Part number A35604) according to the manufacturer's specifications. RNA integrity was assessed using the HT RNA reagent kit (Part number 760410, Caliper Life Sciences, Hopkinton, Mass.) using a LabChip GX (PerkinElmer, Waltham, Mass.). RNA samples with a RQS score of >8.0 were considered high quality for downstream microarray processing. […] Washing and staining of the hybridized arrays were completed as described in the GeneChip Expression analysis technical manual for HT plate arrays using the Genechip® Array Station (Affymetrix, Santa Clara, Calif.) with modifications as described in […] et al. The processed GeneChip® plate arrays were scanned using GeneTitan scanner (Affymetrix, Santa Clara, Calif.). Affymetrix scans were subject to quality control (QC) measures. These tests included a visual inspection of the distribution of raw signal intensities and an assessment of RNA degradation, relative log expression (RLE), and normalized unscaled standard error (NUSE). All sample scans that passed these QC metrics were included in the analysis. […] Nucleic Acids Res 2003; 31:e15; Li C, et al. Genome Biol 2001; 2:[…]0032). […] Stat Appl Genet Mol Biol 2004; 3:Article3). […] Springer Science+Business Media 2005). […] Generally, no distinct sample groupings were apparent from this analysis; however, in the following cohorts, differences in EAE severity across the mice were manifest in global gene expression patterns: An example of this animal grouping is shown in FIG. 33 for the spinal cord from the chronically-dosed 7 h EAE mice. […] Three distinct groups of mice result from unsupervised clustering, and these animal groups correlate with the cumulative EAE score. […] Subsequent analyses for the cohorts listed above only included those animals with the most severe EAE scores; however, for the cohorts 'Spinal Cord, Acute Dosing, 7 h' and 'Spleen, Acute Dosing, 12 h,' there were an insufficient number of mice in the different treatment groups to perform such a sub-analysis. […]

COC(=O)/C=C/C(=O)O [MMF, monomethyl fumarate]
FC Gm6159 /// Hnrnpr 1437526_PM_x_at (spleen, 7 h): 1.50
FC Gsto1 1456036_PM_x_at (spleen, 7 h): 1.51
FC Hadhb 1437172_PM_x_at (spleen, 7 h): 1.51
FC Herpud2 1439424_PM_x_at (spleen, 7 h): 1.62
FC Higd1c /// Mettl7a1 /// Mettl7a2 1434150_PM_a_at (spleen, 7 h): 2.40
FC Higd1c /// Mettl7a2 1456510_PM_x_at (spleen, 7 h): 1.61
FC Homer1 1437363_PM_at (spleen, 7 h): 1.60
FC Itsn1 1435884_PM_at (spleen, 7 h): 1.69
FC Kctd3 1455816_PM_a_at (spleen, 7 h): 1.51
FC Kif22 1437716_PM_x_at (spleen, 7 h): 1.68
FC Klhl7 1428091_PM_at (spleen, 7 h): 1.77
FC LOC100047324 /// Sesn1 1438931_PM_s_at (spleen, 7 h): 1.52
FC Lmcd1 1424596_PM_s_at (spleen, 7 h): 1.64
FC Lnp 1453035_PM_at (spleen, 7 h): 1.69
FC Lrrtm2 1455489_PM_at (spleen, 7 h): 1.50
FC Mcm4 1436708_PM_x_at (spleen, 7 h): 1.72
FC Metap2 1434120_PM_a_at (spleen, 7 h): 1.52
FC Mettl7a1 1454858_PM_x_at (spleen, 7 h): 1.63
FC Mkrn1 1434853_PM_x_at (spleen, 7 h): 1.62
FC Myef2 1425350_PM_a_at (spleen, 7 h): 1.59
FC Myof 1427318_PM_s_at (spleen, 7 h): 1.52
FC Ncapd3 1454952_PM_s_at (spleen, 7 h): 1.66
FC Nfkb1 1427705_PM_a_at (spleen, 7 h): 1.52
FC Nqo1 (1423627_PM_at) (spleen, 7 h): 3.23
FC Nudt12 1453139_PM_at (spleen, 7 h): 2.17
FC Otud5 1438985_PM_x_at (spleen, 7 h): 1.51
FC Pik3r1 1425514_PM_at (spleen, 7 h): 1.62
FC Pir (1429001_PM_at) (spleen, 7 h): 2.78
FC Polh 1447837_PM_x_at (spleen, 7 h): 1.64
FC Prkaca 1447720_PM_x_at (spleen, 7 h): 1.53
FC Prkar1b 1440132_PM_s_at (spleen, 7 h): 1.50
FC Prpf40a 1429436_PM_at (spleen, 7 h): 1.65
FC Psmc6 1417770_PM_s_at (spleen, 7 h): 1.77
FC Psmd9 1447670_PM_at (spleen, 7 h): 1.73
FC Rab6 1447776_PM_x_at (spleen, 7 h): 1.51
FC Rad21 1455938_PM_x_at (spleen, 7 h): 1.58
FC Ranbp2 1422621_PM_at (spleen, 7 h): 1.50
FC Ranbp2 1445883_PM_at (spleen, 7 h): 1.61
FC Rbm39 1442745_PM_x_at (spleen, 7 h): 1.54
FC Rdx 1416179_PM_a_at (spleen, 7 h): 1.53
FC Rif1 1429490_PM_at (spleen, 7 h): 1.66
FC Rlim 1439403_PM_x_at (spleen, 7 h): 1.51
FC Sec24a 1433934_PM_at (spleen, 7 h): 1.50
FC Smc4 1427275_PM_at (spleen, 7 h): 1.56
FC Smc6 1460069_PM_at (spleen, 7 h): 1.52
FC Smpd4 1429530_PM_a_at (spleen, 7 h): 2.04
FC Sorbs1 1436737_PM_a_at (spleen, 7 h): 1.71
FC Sp4 1437508_PM_at (spleen, 7 h): 1.67
FC Srxn1 (1419942_PM_at) (spleen, 7 h): 1.82
FC Srxn1 (1426875_PM_s_at) (spleen, 7 h): 1.94
FC Srxn1 (1451680_PM_at) (spleen, 7 h): 1.68
FC Suz12 1449661_PM_at (spleen, 7 h): 1.56
FC Svip 1429146_PM_at (spleen, 7 h): 1.59
FC Tceb1 1452593_PM_a_at (spleen, 7 h): 1.50
FC Terf1 1443527_PM_at (spleen, 7 h): 1.71
FC Thoc1 1420042_PM_at (spleen, 7 h): 1.89
FC Tmem41b 1428586_PM_at (spleen, 7 h): 1.88
FC Tmem64 1433735_PM_a_at (spleen, 7 h): 1.70
FC Tnks2 1447522_PM_s_at (spleen, 7 h): 1.63
FC Tspyl1 1415908_PM_at (spleen, 7 h): 1.66
FC Ttc14 1437878_PM_s_at (spleen, 7 h): 1.53
FC Txnl1 1435235_PM_at (spleen, 7 h): 1.59
FC Usp14 1437714_PM_x_at (spleen, 7 h): 1.57
FC Zfp800 1456790_PM_at (spleen, 7 h): 1.83
FC Zfx 1419565_PM_a_at (spleen, 7 h): 1.50
FC 4930427A07Rik 1455818_PM_at (whole blood, 7 h): −1.59
FC Klra3 /// Klra9 1425436_PM_x_at (whole blood, 7 h): −2.05
FC Klra8 1425417_PM_x_at (whole blood, 7 h): −2.10
FC Rnf128 (1449036_PM_at) (whole blood, 7 h): 1.54
FC Serpinb6b 1422804_PM_at (whole blood, 7 h): −1.64
FC Xpc 1422532_PM_at (whole blood, 7 h): 1.59
FC 1445666_PM_at (whole blood, 12 h): 2.14
FC Prdm2 1453068_PM_at (whole blood, 12 h): 1.70
